pIC50: −log10 of the molar value.
These compounds were tested against T1, hCRTH2 receptor (Homo sapiens, UniProt Q9Y5Y4) (assay: Radioligand displacement assay (3H-PGD2) on hCRTH2 receptor membranes). Settings: antagonistic activity, 3H-PGD2 radioligand displacement, HEK293-hCRTH2 membranes.
T1 construct: expressed in transfected cells; host or cells: HEK293
T1 sequence (Q9Y5Y4 1-395): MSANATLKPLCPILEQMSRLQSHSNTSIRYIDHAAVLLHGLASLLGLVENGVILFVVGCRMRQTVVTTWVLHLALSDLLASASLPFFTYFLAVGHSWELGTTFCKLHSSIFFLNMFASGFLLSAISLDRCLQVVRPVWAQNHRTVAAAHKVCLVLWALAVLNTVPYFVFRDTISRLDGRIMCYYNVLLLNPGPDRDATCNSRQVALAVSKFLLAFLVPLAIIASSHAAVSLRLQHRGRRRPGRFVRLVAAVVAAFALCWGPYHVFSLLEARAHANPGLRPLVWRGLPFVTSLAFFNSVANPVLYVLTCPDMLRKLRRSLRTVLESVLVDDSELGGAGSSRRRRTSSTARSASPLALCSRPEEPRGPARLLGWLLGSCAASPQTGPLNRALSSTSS
Type: binding

pIC50	Structure (SMILES)
7.42	O=C(O)COc1ccc(Cl)cc1C1c2ccccc2CN1C(=O)COc1cccc2cccnc12 (racemic) [Example 509]
8.13	O=C(O)COc1ccc(Cl)cc1[C@@H]1c2ccccc2CCN1C(=O)OCc1nc2ccccc2o1 [Example 295, (S)-1-(2-Carboxymethoxy-5-chloro-phenyl)-3,4-dihydro-1H-isoquinoline-2-carboxylic acid benzooxazol-2-ylmethyl ester]
7.77	O=C(O)COc1ccc(Cl)cc1C1c2ccccc2CCN1C(=O)CCn1ccc2cc(F)ccc21 (racemic) [Example 379]
7.36	Cc1ccc(OCC(=O)N2CCc3ccccc3C2c2cc(Cl)ccc2OCC(=O)O)c(C)c1 (racemic) [Example 456]
7.62	CC1(C)CC1C(=O)N1CCc2ccccc2C1c1cc(Cl)ccc1OCC(=O)O (racemic) [Example 466, (±)-{4-Chloro-2-[2-(2,2-dimethyl-cyclopropanecarbonyl)-1,2,3,4-tetrahydro-isoquinolin-1-yl]-phenoxy}-acetic acid]
7.22	Cc1c(CCC(=O)N2CCc3ccccc3C2c2cc(Cl)ccc2OCC(=O)O)c2ccccc2n1C (racemic) [Example 457]
6.53	O=C(O)COc1ccc(Cl)cc1C1c2ccccc2CN1C(=O)CCn1ncc2cccc(F)c21 (single isomer, unassigned) [Example 551, (4-Chloro-2-{2-[3-(7-fluoro-indazol-1-yl)-propionyl]-2,3-dihydro-1H-isoindol-1-yl}-phenoxy)-acetic acid]
7.78	O=C(O)COc1ccc(Cl)cc1C1c2ccccc2CCN1C(=O)NCc1ccccc1 (racemic) [Example 492]
7.47	O=C(O)COc1ccc(Cl)cc1C1c2ccccc2CCN1C(=O)OCc1ccc(C(F)(F)F)cc1 (racemic) [Example 363]
7.68	COc1cccc2c1ccn2CCC(=O)N1CCc2ccccc2C1c1cc(Cl)ccc1OCC(=O)O (racemic) [Example 382]
7.89	O=C(O)COc1ccc(Cl)cc1C1c2ccccc2CN1C(=O)CCn1ncc2ccc(F)cc21 (single isomer, unassigned) [Example 534, (4-Chloro-2-{2-[3-(6-fluoro-indazol-1-yl)-propionyl]-2,3-dihydro-1H-isoindol-1-yl}-phenoxy)-acetic acid]
8.97	O=C(O)COc1ccc(Cl)cc1[C@@H]1c2ccccc2CCN1C(=O)OCn1ncc2ccccc21 [Example 297, (S)-1-(2-Carboxymethoxy-5-chloro-phenyl)-3,4-dihydro-1H-isoquinoline-2-carboxylic acid indazol-1-ylmethyl ester]
6.88	Cc1ncccc1OCC(=O)N1CCc2ccccc2C1c1cc(Cl)ccc1OCC(=O)O (racemic) [Example 469]
6.57	O=C(O)COc1ccc(Cl)cc1C1c2ccccc2CN1C(=O)CCn1ncc2c(F)cccc21 (single isomer, unassigned) [Example 547, (4-Chloro-2-{2-[3-(4-fluoro-indazol-1-yl)-propionyl]-2,3-dihydro-1H-isoindol-1-yl}-phenoxy)-acetic acid]
8.05	O=C(O)COc1ccc(Cl)cc1[C@@H]1c2ccc(F)c(F)c2CCN1C(=O)OCc1ccccc1F [Example 349, (S)-1-(2-Carboxymethoxy-5-chloro-phenyl)-5,6-difluoro-3,4-dihydro-1H-isoquinoline-2-carboxylic acid 2-fluoro-benzyl ester]
7.37	O=C(O)COc1ccc(Cl)cc1C1c2ccccc2CCN1C(=O)CCn1ccc2ncc(Cl)nc21 (racemic) [Example 404]
6.71	O=C(O)COc1ccc(Cl)cc1C1c2ccccc2CCN1C(=O)CCn1ccc2cccnc21 (racemic) [Example 369]
6.20	Cc1nn(CCC(=O)N2Cc3ccccc3C2c2cc(Cl)ccc2OCC(=O)O)c2c(F)cccc12 (single isomer, unassigned) [Example 540]
8.24	O=C(O)COc1ccc(Cl)cc1C1c2ccc(F)cc2CCN1C(=O)CCCc1ccccc1F (racemic) [Example 436]
8.07	O=C(O)COc1ccc(Cl)cc1C1c2ccccc2CCN1C(=O)CCn1nc(Cl)c2ccccc21 (racemic) [Example 383]
7.48	O=C(O)COc1ccc(Cl)cc1C1c2ccccc2CN1C(=O)COc1ccc(F)cc1 (racemic) [Example 504]
6.43	COc1ccc(OCC(=O)N2CCc3ccccc3C2c2cc(Cl)ccc2OCC(=O)O)cn1 (racemic) [Example 486]
7.84	O=C(O)COc1ccc(Cl)cc1C1c2ccccc2CN1C(=O)NCc1ccccc1 (racemic) [Example 555]
6.75	Cc1cccc(CCC(=O)N2CCc3ccccc3C2c2cc(Cl)ccc2OCC(=O)O)n1 (racemic) [Example 408]
8.09	O=C(O)COc1ccc(Cl)cc1C1c2ccccc2CN1C(=O)CCn1ncc2cc(F)ccc21 (single isomer, unassigned) [Example 527, (4-Chloro-2-{2-[3-(5-fluoro-indazol-1-yl)-propionyl]-2,3-dihydro-1H-isoindol-1-yl}-phenoxy)-acetic acid]
8.91	O=C(O)COc1ccc(Cl)cc1[C@@H]1c2ccccc2CCN1C(=O)OCc1ccccc1F [Example 357, (S)-1-(2-Carboxymethoxy-5-chloro-phenyl)-3,4-dihydro-1H-isoquinoline-2-carboxylic acid 2-fluoro-benzyl ester]
7.25	COc1ccccc1OCC(=O)N1Cc2ccccc2C1c1cc(Cl)ccc1OCC(=O)O (racemic) [Example 502]
6.96	O=C(O)COc1ccc(Cl)cc1C1c2ccccc2CCN1C(=O)COc1ccc(Cl)nc1 (racemic) [Example 472]

Same assay, conditions: antagonistic activity; 3H-PGD2 displacement on HEK293-hCRTH2 membrane fragments

pIC50	Structure (SMILES)
8.54	O=C(O)COc1ccc(F)cc1[C@@H]1c2ccccc2CCN1C(=O)OCc1ccccc1 [Example 221, (S)-1-(2-Carboxymethoxy-5-fluoro-phenyl)-3,4-dihydro-1H-isoquinoline-2-carboxylic acid benzyl ester]
7.90	O=C(O)COc1ccc(Cl)cc1C1c2ccccc2CCN1C(=O)OCc1cccc(F)c1 (racemic) [Example 238]
7.56	O=C(O)COc1ccc(F)cc1C1c2ccccc2CCN1C(=O)OCCc1ccccc1Cl (racemic) [Example 177, (±)-1-(2-Carboxymethoxy-5-fluoro-phenyl)-3,4-dihydro-1H-isoquinoline-2-carboxylic acid 2-(2-chloro-phenyl)-ethyl ester]
8.30	Cc1cnc(COC(=O)N2CCc3ccccc3[C@H]2c2cc(Cl)ccc2OCC(=O)O)s1 [Example 275, (S)-1-(2-Carboxymethoxy-5-chloro-phenyl)-3,4-dihydro-1H-isoquinoline-2-carboxylic acid 5-methyl-thiazol-2-ylmethyl ester]
8.38	O=C(O)COc1ccc(F)cc1C1c2ccc(F)cc2CCN1C(=O)OCc1ccccc1 (racemic) [Example 163]
6.55	COc1cccc(CCC(=O)N2CCc3ccccc3C2c2cc(F)ccc2OCC(=O)O)c1 (racemic) [Example 129, (±)-(4-Fluoro-2-{2-[3-(3-methoxy-phenyl)-propionyl]-1,2,3,4-tetrahydro-isoquinolin-1-yl}-phenoxy)-acetic acid]
8.69	O=C(O)COc1ccc(Cl)cc1[C@@H]1c2ccccc2CCN1C(=O)OCc1nccs1 [Example 273, (S)-1-(2-Carboxymethoxy-5-chloro-phenyl)-3,4-dihydro-1H-isoquinoline-2-carboxylic acid thiazol-2-ylmethyl ester]
6.19	O=C(O)COc1ccc(F)cc1C1c2ccccc2CCN1C(=O)CNS(=O)(=O)c1ccc(F)c(F)c1 (racemic) [Example 209]
6.91	O=C(O)COc1ccc(F)cc1C1c2ccccc2CCN1C(=O)Cc1csc2ccccc12 (racemic) [Example 58, (±)-{2-[2-(2-Benzo[b]thiophen-3-yl-acetyl)-1,2,3,4-tetrahydro-isoquinolin-1-yl]-4-fluoro-phenoxy}-acetic acid]
6.05	CN(C)S(=O)(=O)c1ccc(OCC(=O)O)c(C2c3ccccc3CCN2C(=O)OCc2ccccc2)c1 (racemic) [Example 17, (±)-1-(2-Carboxymethoxy-5-dimethylsulfamoyl-phenyl)-3,4-dihydro-1H-isoquinoline-2-carboxylic acid benzyl ester]
7.77	O=C(O)COc1ccc(F)cc1C1c2ccccc2CCN1C(=O)COCc1cccc(Cl)c1 (racemic) [Example 190]
7.30	COc1ccc2[nH]cc(CCC(=O)N3CCc4ccccc4C3c3cc(F)ccc3OCC(=O)O)c2c1 (racemic) [Example 64, (±)-(4-Fluoro-2-{2-[3-(5-methoxy-1H-indol-3-yl)-propionyl]-1,2,3,4-tetrahydro-isoquinolin-1-yl}-phenoxy)-acetic acid]
7.73	O=C(O)COc1ccc(Cl)cc1C1c2ccccc2CCN1C(=O)OCc1cccc(C(F)(F)F)c1 (racemic) [Example 240]
6.54	O=C(O)COc1ccc(F)cc1C1c2ccccc2CCN1C(=O)Cc1ccc2cccnc2c1 (racemic) [Example 48, (±)-{4-Fluoro-2-[2-(2-quinolin-7-yl-acetyl)-1,2,3,4-tetrahydro-isoquinolin-1-yl]-phenoxy}-acetic acid]
7.68	COc1ccccc1CNC(=O)N1CCc2ccccc2C1c1cc(F)ccc1OCC(=O)O (racemic) [Example 201]

Same assay, conditions: radioligand displacement (3H-PGD2), hCRTH2 receptor membranes; antagonistic activity

pIC50	Structure (SMILES)
6.56	Cc1ccccc1[C@H]1C[C@@H]1C(=O)N1CCc2ccccc2[C@H]1c1cc(Cl)ccc1OCC(=O)O [Example 561, {4-Chloro-2-[(S)-2-((1S,2S)-2-o-tolyl-cyclopropanecarbonyl)-1,2,3,4-tetrahydro-isoquinolin-1-yl]-phenoxy}-acetic acid]
